Source: ChEMBL document CHEMBL4433242, “Rapalogs Potential as Practical Alternatives to Rapamycin” (ACS Med Chem Lett, 2019)

Each compound was assayed against Serine/threonine-protein kinase mTOR (Mus musculus, UniProt Q9JLN9) (assay: Inhibition of mTOR in mouse TSC1-/- MEF cells assessed as inhibition of S6 Ser240/244 phosphorylation incubated for 2 hrs by fluorescence based assay).
Type: cell-based
`CO[C@@H]1C[C@H](C[C@@H](C)[C@@H]2CC[C@H](C)/C=C(\C)[C@@H](O)[C@@H](OC)C(=O)[C@H](C)C[C@H](C)/C=C/C=C/C=C(\C)C(N3CCS3(=O)=O)C[C@@H]3CC[C@@H](C)[C@@](O)(O3)C(=O)C(=O)N3CCCC[C@H]3C(=O)O2)CC[C@@H]1n1cnnn1` (stereo not given in full) was tested, and the IC50 was 0.374 nM.
For `CO[C@@H]1C[C@H](C[C@@H](C)[C@@H]2CC[C@H](C)/C=C(\C)[C@@H](O)[C@@H](OC)C(=O)[C@H](C)C[C@H](C)/C=C/C=C/C=C(\C)C(N3CCN(CCO)C3=O)C[C@@H]3CC[C@@H](C)[C@@](O)(O3)C(=O)C(=O)N3CCCC[C@H]3C(=O)O2)CC[C@H]1O` (stereo not given in full), the IC50 was 153 nM.
In the case of `CO[C@@H]1C[C@H](C[C@@H](C)[C@@H]2CC[C@H](C)/C=C(\C)[C@@H](O)[C@@H](OC)C(=O)[C@H](C)C[C@H](C)/C=C/C=C/C=C(\C)C(N3CCS3(=O)=O)C[C@@H]3CC[C@@H](C)[C@@](O)(O3)C(=O)C(=O)N3CCCC[C@H]3C(=O)O2)CC[C@H]1O` (stereo not given in full), the IC50 is reported as 0.17 nM.
`CO[C@@H]1C[C@H](C[C@@H](C)[C@@H]2CC[C@H](C)/C=C(\C)[C@@H](O)[C@@H](OC)C(=O)[C@H](C)C[C@H](C)/C=C/C=C/C=C(\C)C(N3CCCS3(=O)=O)C[C@@H]3CC[C@@H](C)[C@@](O)(O3)C(=O)C(=O)N3CCCC[C@H]3C(=O)O2)CC[C@H]1OP(C)(C)=O` (stereo not given in full) was tested, and the IC50 was 3.2 nM.
Work on `CO[C@@H]1C[C@H](C[C@@H](C)[C@@H]2CC[C@H](C)/C=C(\C)[C@@H](O)[C@@H](OC)C(=O)[C@H](C)C[C@H](C)/C=C/C=C/C=C(\C)[C@H](N3CCCS3(=O)=O)C[C@@H]3CC[C@@H](C)[C@@](O)(O3)C(=O)C(=O)N3CCCC[C@H]3C(=O)O2)CC[C@H]1O` yielded an IC50 of 0.274 nM.
